Source: patent US20080306067A1, “Modulators of Chemokine Receptor Activity” (priority 2005, published 2008)

Legend:
human CCR-3 = target: T1, human CCR-3 (Homo sapiens, UniProt P51677); test: binding of [125I]-human eotaxin to human CCR-3 (SPA, membranes of RBL-2H3 cells expressing CCR3); conditions: 4 hours at room temperature, read-out: IC50 (inhibition of binding of eotaxin to CCR-3)
T1 construct: expressed in transfected cells; membrane preparation
T1 sequence (P51677 1-355): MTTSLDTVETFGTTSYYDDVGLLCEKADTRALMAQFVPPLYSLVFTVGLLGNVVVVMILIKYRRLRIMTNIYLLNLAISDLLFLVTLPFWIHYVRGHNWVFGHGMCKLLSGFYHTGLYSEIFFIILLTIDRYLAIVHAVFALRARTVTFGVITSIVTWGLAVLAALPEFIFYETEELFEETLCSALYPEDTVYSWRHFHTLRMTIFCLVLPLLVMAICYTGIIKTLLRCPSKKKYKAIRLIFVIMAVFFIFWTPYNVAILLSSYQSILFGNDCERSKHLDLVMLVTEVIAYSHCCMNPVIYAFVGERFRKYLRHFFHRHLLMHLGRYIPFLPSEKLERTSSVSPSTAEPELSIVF
Procedure: In this assay the effect of the compounds of the present invention on the binding of human eotaxin to human CCR-3 is determined. Recombinant cells expressing human CCR-3 are captured by wheatgerm agglutinin (WGA) polyvinyltoluidene (PVT) SPA beads (available from Amersham), through a specific interaction between the WGA and carbohydrate residues of glycoproteins on the surface of the cells. [^125I]-human eotaxin (available from Amersham) binds specifically to CCR-3 receptors bringing the [^125I]-human eotaxin in close proximity to the SPA beads. Emitted â-particles from the [^125I]-human eotaxin excite, by its proximity, the fluorophore in the beads and produce light.
Preparation of Assay Buffer. 5.96 g HEPES and 7.0 g sodium chloride are dissolved in distilled H2O and 1M aq. CaCl2 (1 ml) and 1M aq. MgCl2 (5 ml) are added. The pH is adjusted to 7.6 with NaOH and the solution made to a final volume of 1 L using distilled H2O. 5 g of bovine serum albumin and 0.1 g NaN3 are dissolved in the solution and the resulting buffer stored at 4° C. […]
The assay is performed in a final volume of 250 μl per well of an Optiplate™ microplate (ex Canberra Packard). […] The resulting scintillations are counted using a Canberra Packard TopCount™ scintillation counter, each well being counted for 1 minute. […]

[1] = target: alpha-1 adrenergic receptor; test: alpha-1 adrenergic receptor radioligand binding assay ([125I]-HEAT, rat cerebral cortex membranes); conditions: radioligand used at 40 pM
Procedure: The inhibitory properties of the compounds of the present invention on binding of the alpha-1 adrenergic receptor can be determined in the following assay:
Cerebral cortices from male Sprague-Dawley rats (175-200 g) are dissected and homogenised in 10 volumes of ice cold 0.32 M sucrose (containing 1 mM MgCl2 dihydrate and 1 mM K2HPO4) with a glass/Teflon homogeniser. The membranes are centrifuged at 1000×g for 15 minutes, the pellet discarded and the centrifugation repeated. The supernatants are pooled and centrifuged at 18,000×g for 15 minutes. The pellet is osmotically shocked in 10 volumes of H2O and kept on ice for 30 minutes. The suspension is centrifuged at 39,000×g for 20 minutes, resuspended in Krebs-Henseleit buffer pH 7.4 (1.17 mM MgSO4 anhydrous, 4.69 mM KCl, 0.7 mM K2HPO4 anhydrous, 0.11 M NaCl, 11 mM D-glucose and 25 mM NaHCO3) containing 20 mM Tris, and kept for 2 days at −20° C. […]
The resulting membranes are subjected to a radioligand binding assay. […] Following drying of the plates for 3 h. at 50° C., 40 μl of Microscint 20 is added to each well, the plates incubated at room temperature for a further 20 minutes and the retained radioactivity quantified in a Packard TopCount NXT™ scintillation counter. […]

Row | IC50 (human CCR-3) [nM] | Kd [1] [nM] | Structure (SMILES)
1 | ~6 |  | CN(CCCCNC(=O)Nc1cccc(-c2nnnn2C)c1)Cc1ccc(F)cc1 [Example 1, 1-{4-[(4-Fluorobenzyl)-methylamino]butyl}-3-[3-(1-methyl-1H-tetrazol-5-yl)phenyl]-urea]
2 |  | 0.0589 ± 0.0187 | O=C1c2ccccc2CCC1CNCCc1ccc(O)c(I)c1 (centres unmarked) [[^125I]-HEAT]
